This is an account of results in patent publication US9657009B2, “Heteroaryl substituted pyridyl compounds useful as kinase modulators” (BRISTOL-MYERS SQUIBB COMPANY, priority 2012, dated 2017).

The target in the test is IRAK4 (Homo sapiens (Human), UniProt Q9NWZ3). As to the kind of experiment: IRAK4 Inhibition Assay. The format is biochemical. To be noted: ATP 500 μM; IRAK4 0.6 nM; 60 min at room temperature; read-out: IRAK4 IC50. As to the method: IRAK4 Inhibition Assay The assays were performed in U-bottom 384-well plates. […] The reaction was initiated by the combination of IRAK4 with substrates and test compounds. The reaction mixture was incubated at room temperature for 60 min. and terminated by adding 45 μL of 35 mM EDTA to each sample.
Chain of IRAK4 (Q9NWZ3 whole entry, species assumed): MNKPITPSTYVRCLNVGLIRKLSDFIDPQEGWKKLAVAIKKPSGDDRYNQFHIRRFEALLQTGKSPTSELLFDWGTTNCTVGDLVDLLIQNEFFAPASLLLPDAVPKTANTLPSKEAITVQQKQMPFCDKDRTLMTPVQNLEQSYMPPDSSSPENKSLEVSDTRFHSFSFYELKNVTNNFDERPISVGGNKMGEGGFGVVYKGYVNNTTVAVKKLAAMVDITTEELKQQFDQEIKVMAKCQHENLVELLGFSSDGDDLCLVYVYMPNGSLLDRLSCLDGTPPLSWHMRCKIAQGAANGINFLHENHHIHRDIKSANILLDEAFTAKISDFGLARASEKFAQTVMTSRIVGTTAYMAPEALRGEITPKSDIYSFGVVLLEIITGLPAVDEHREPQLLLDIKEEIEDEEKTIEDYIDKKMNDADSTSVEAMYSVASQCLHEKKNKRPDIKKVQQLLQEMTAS

For orientation: IC50 means the concentration that gives 50% inhibition. Turning to `C[C@@H](CO)Nc1cc(Nc2ncc(C#N)cc2Cl)ncc1C(=O)NC[C@@H](F)C(C)(C)O` [Example 50], the half-inhibitory concentration (IC50) was 9.4 nM.

For `CCNc1cc(Nc2ncc(C#N)cc2Cl)ncc1C(=O)NC[C@@H](F)C(C)(C)O` [Example 51], the IC50 worked out at 4.6 nM. The same measure for `CC(C)Nc1cc(Nc2ncncc2F)ncc1C(=O)NC[C@@H](F)C(C)(C)O` [Example 53]: 8.1 nM; for `CC(C)(O)[C@H](F)CNC(=O)c1cnc(Nc2ncc(C#N)cn2)cc1NC1CCC(F)C1` (some centres unmarked) [Example 56]: 5 nM; for `CCNc1cc(Nc2ncc(C#N)cn2)ncc1C(=O)NC[C@@H](F)C(C)(C)O` [Example 58]: 10.4 nM. As for `CNC(=O)[C@H]1CC[C@H](NC(=O)c2cnc(Nc3ncc(C#N)cc3F)cc2NC2CC2)CC1` [Example 59], the IC50 worked out at 7.4 nM.

On to `CNC(=O)[C@H]1CC[C@H](NC(=O)c2cnc(Nc3ncc(C#N)cc3Cl)cc2NC2CC2)CC1` [Example 60], for which the IC50 was 6.7 nM. The same measure for `CNC(=O)[C@H]1CC[C@H](NC(=O)c2cnc(Nc3ncc(C#N)cc3F)cc2NC2CCOCC2)CC1` [Example 61]: 8.4 nM; for `Cc1nc(Nc2cc(NC(C)C)c(C(=O)NC[C@@H](F)C(C)(C)O)cn2)ccc1C#N` [Example 63]: 3.8 nM.

For the compound `CC(=O)N[C@H](C)CCNC(=O)c1cnc(Nc2ncc(C#N)cc2F)cc1NC(C)C` [Example 64], the concentration for half-maximal inhibition (IC50) turned out to be 3.1 nM.

Turning to `CC(C)(O)[C@H](F)CNC(=O)c1cnc(Nc2ncc(C#N)cc2Cl)cc1NCC(F)(F)F` [Example 65], the IC50 stood at 2.9 nM. Turning to `CCNc1cc(Nc2ncc(C#N)cc2F)ncc1C(=O)NC[C@@H](F)C(C)(C)O` [Example 66], the IC50 was determined as 3.8 nM. Under `CC(=O)N[C@H]1CC[C@H](NC(=O)c2cnc(Nc3ncc(C#N)cc3Cl)cc2NC2CC2)CC1` [Example 67] stands 7.2 nM; under `CCn1ncc(Nc2cc(NC(C)C)c(C(=O)NC[C@@H](F)C(C)(C)O)cn2)n1` [Example 72], 10.4 nM. The same measure for `CC(C)(O)c1cnc(Nc2cc(Nc3ncc(C#N)cc3Cl)ncc2C(=O)NC[C@@H](F)C(C)(C)O)s1` [Example 75]: 1.4 nM. Under `CC(C)(O)[C@H](F)CNC(=O)c1cnc(Nc2ncc(C#N)cc2Cl)cc1NC1CCCC1O` (some centres unmarked) [Example 76] stands 6.4 nM; under `CC(=O)N[C@H]1CC[C@H](NC(=O)c2cnc(Nc3ncc(C#N)cc3Cl)cc2NC2CCOCC2)CC1` [Example 77], 7.8 nM. For `CC(C)(O)[C@H](F)CNC(=O)c1cnc(Nc2ncc(C#N)cc2Cl)cc1NC1CCOCC1F` (some centres unmarked) [Example 79], the IC50 stood at 3 nM. The same measure for `CC(C)Nc1cc(Nc2ncc(F)cc2F)ncc1C(=O)NC[C@@H](F)C(C)(C)O` [Example 80]: 7 nM; for `CC(C)(O)[C@H](F)CNC(=O)c1cnc(Nc2ccc(Cl)cn2)cc1NC1CC1` [Example 81]: 7.1 nM. Regarding `CC(=O)N[C@H]1CC[C@H](NC(=O)c2cnc(Nc3ncc(C#N)cc3F)cc2NC2CC2)CC1` [Example 83], the IC50 came out at 7.3 nM. The same measure for `Cc1cc(C#N)cnc1Nc1cc(NC(C)C)c(C(=O)NC[C@@H](F)C(C)(C)O)cn1` [Example 85]: 3.6 nM. Consider `CC(C)(O)[C@H](F)CNC(=O)c1cnc(Nc2ncc(C#N)cn2)cc1NC1CCC(F)C1` (some centres unmarked) [Example 86], for which the IC50 came out at 4.8 nM. The same measure for `CC(C)(O)[C@H](F)CNC(=O)c1cnc(Nc2ncc(F)cc2F)cc1NC1CC1` [Example 89]: 14.5 nM. The same measure for `CC(C)(O)[C@H](F)CNC(=O)c1cnc(Nc2ncc(C#N)cc2Cl)cc1NC12CC(C1)C2` [Example 90]: 3.5 nM; for `C[C@@H](CO)Nc1cc(Nc2ncc(C#N)cc2F)ncc1C(=O)NC[C@@H](F)C(C)(C)O` [Example 91]: 4.3 nM; for `CC(C)Nc1cc(Nc2ncc(C#N)cc2Cl)ncc1C(=O)N[C@H]1CC[C@H](O)CC1` [Example 92]: 12.7 nM. In the case of `COC(=O)Cn1cc(Cl)c(Nc2cc(NC(C)C)c(C(=O)NC[C@@H](F)C(C)(C)O)cn2)n1` [Example 93], the IC50 was 17.5 nM. Regarding `CC(C)(O)[C@H](F)CNC(=O)c1cnc(Nc2ncncc2F)cc1NC1CC1` [Example 94], the IC50 was determined as 12.1 nM. Under `CC(C)(O)[C@H](F)CNC(=O)c1cnc(Nc2ncncc2Cl)cc1NC1CCCOC1` (some centres unmarked) [Example 96] stands 11.2 nM; under `CC(C)(O)[C@H](F)CNC(=O)c1cnc(Nc2ncc(C#N)cc2F)cc1NC1CCCOC1` (some centres unmarked) [Example 97], 5.3 nM; under `CC(C)(O)[C@H](F)CNC(=O)c1cnc(Nc2ncc(C#N)cc2F)cc1NC1CCCOC1` (some centres unmarked) [Example 98], 7.5 nM.

In the case of `CCC(C)Nc1cc(Nc2ncc(C#N)cn2)ncc1C(=O)NC[C@@H](F)C(C)(C)O` (some centres unmarked) [Example 99], the IC50 was 4.2 nM. Take `C[C@H](CO)Nc1cc(Nc2ncc(F)cc2F)ncc1C(=O)NC[C@@H](F)C(C)(C)O` [Example 100]: the IC50 was 17.4 nM. Regarding `C[C@@H](CO)Nc1cc(Nc2ncc(C#N)cn2)ncc1C(=O)NC[C@@H](F)C(C)(C)O` [Example 101], the IC50 was determined as 5.6 nM.

Consider `CC(C)(F)CNc1cc(Nc2ncc(C#N)cc2Cl)ncc1C(=O)NC1CCC(C(C)(C)O)CC1` (centres unmarked) [Example 103], for which the IC50 was 5.3 nM.

Consider `CC(C)(O)[C@H](F)CNC(=O)c1cnc(Nc2ncc(C#N)cc2Cl)cc1NC1CCCCC1O` (some centres unmarked) [Example 104], for which the IC50 is 8.6 nM.

In the case of `CC(C)(O)[C@H](F)CNC(=O)c1cnc(Nc2ncc(C#N)cn2)cc1N[C@H]1CCC[C@H]1F` [Example 107], the IC50 was 9.1 nM. Turning to `CC(C)(O)[C@H](F)CNC(=O)c1cnc(Nc2ncc(F)cc2F)cc1NC1CCOCC1F` (some centres unmarked) [Example 108], the IC50 came out at 8.7 nM.

For `CC(C)Nc1cc(Nc2ncc(O)cn2)ncc1C(=O)NC[C@@H](F)C(C)(C)O` [Example 111], the IC50 amounted to 11.8 nM. The same measure for `COc1cnc(Nc2cc(NC3CCC3)c(C(=O)NC[C@@H](F)C(C)(C)O)cn2)nc1` [Example 112]: 11 nM; for `Cc1cnc(Nc2cc(NC(C)C)c(C(=O)NC[C@@H](F)C(C)(C)O)cn2)nc1` [Example 113]: 17 nM. The same measure for `CC(C)(O)[C@H](F)CNC(=O)c1cnc(Nc2ncc(C#N)cc2F)cc1NC1CCC(F)C1` (some centres unmarked) [Example 114]: 2.3 nM; for `CC(C)Nc1cc(Nc2ncc(C#N)cc2F)ncc1C(=O)N[C@H]1CC[C@H](C(=O)NC(C)C)CC1` [Example 116]: 2.8 nM. Under `CCC(O)(CC)[C@H](F)CNC(=O)c1cnc(Nc2ncc(C#N)cn2)cc1NC(C)C` [Example 117] stands 3.8 nM; under `CC(C)Nc1cc(Nc2ncc(C#N)cc2F)ncc1C(=O)N[C@H]1CC[C@H](C(=O)NC2CC2)CC1` [Example 118], 4.6 nM; under `CC(C)(O)[C@H](F)CNC(=O)c1cnc(Nc2ncc(C#N)cc2F)cc1NC12CC3CC(CC(C3)C1)C2` [Example 119], 10.5 nM. `CC(C)Nc1cc(Nc2ncc(C#N)cc2F)ncc1C(=O)NCCc1ccc(S(N)(=O)=O)cc1` [Example 121]: the IC50 worked out at 6.6 nM. The same measure for `CC(C)(O)[C@H](F)CNC(=O)c1cnc(Nc2ncc(C#N)cc2F)cc1Nc1cccc(CO)c1` [Example 122]: 3.3 nM; for `CC(C)Nc1cc(Nc2ncc(Cl)cc2F)ncc1C(=O)NC[C@@H](F)C(C)(C)O` [Example 123]: 3.5 nM.

Consider `CC(C)(O)[C@H](F)CNC(=O)c1cnc(Nc2ncc(Cl)cc2F)cc1NC1CC1` [Example 124], for which the IC50 was 5.7 nM. With `CC(C)(O)[C@H](F)CNC(=O)c1cnc(Nc2ncc(C#N)cc2F)cc1Nc1cccc(O)c1` [Example 125], the concentration for half-maximal inhibition (IC50) came out at 3.6 nM. The same measure for `CC(C)(O)[C@H](F)CNC(=O)c1cnc(Nc2ncc(C#N)cc2F)cc1NCC(F)(F)C(C)(C)O` [Example 126]: 2.9 nM; for `CC(C)Nc1cc(Nc2ncc(C#N)cc2F)ncc1C(=O)NCCCOC(C)(C)C` [Example 127]: 15.3 nM. The same measure for `CC(C)(O)[C@H](F)CNC(=O)c1cnc(Nc2ncc(C#N)cc2F)cc1Nc1cccc(S(N)(=O)=O)c1` [Example 128]: 4.6 nM; for `Cc1cnc(Nc2cc(NC(C)C)c(C(=O)NC[C@@H](F)C(C)(C)O)cn2)c(F)c1` [Example 129]: 15.9 nM.

Consider `COc1cccc(Nc2cc(Nc3ncc(C#N)cc3F)ncc2C(=O)NC[C@@H](F)C(C)(C)O)c1` [Example 130], for which the IC50 was found to be 4 nM. Consider `CC(C)Nc1cc(Nc2ccnc(N)n2)ncc1C(=O)NC[C@@H](F)C(C)(C)O` [Example 131], for which the IC50 came out at 10.6 nM. The same measure for `CC(C)Nc1cc(Nc2ncncc2N)ncc1C(=O)NC[C@@H](F)C(C)(C)O` [Example 132]: 13 nM; for `CC(C)(O)[C@H](F)CNC(=O)c1cnc(Nc2ncc(C#N)cc2F)cc1NC12CCC(O)(CC1)C2` [Example 133]: 3.2 nM.

In the case of `CC(C)(O)[C@H](F)CNC(=O)c1cnc(Nc2ncc(C#N)cc2F)cc1Nc1cccc(NS(C)(=O)=O)c1` [Example 134], the IC50 was 5.2 nM. The same measure for `CC(C)(O)[C@H](F)CNC(=O)c1cnc(Nc2ncc(C#N)cc2F)cc1Nc1cccc(C(N)=O)c1` [Example 135]: 6 nM; for `CC(C)Nc1cc(Nc2ncc(C#N)c(N)n2)ncc1C(=O)NC[C@@H](F)C(C)(C)O` [Example 136]: 3.3 nM.

Regarding `CC(C)Nc1cc(Nc2ncc(C#N)cc2F)ncc1C(=O)N[C@H]1CC[C@H](C(C)(C)O)CC1` [Example 137], the IC50 worked out at 4.1 nM.

For the compound `CCCNc1cc(Nc2ncc(C#N)cc2Cl)ncc1C(=O)NC[C@@H](F)C(C)(C)O` [Example 138], the IC50 is 3.5 nM. Under `CCCNc1cc(Nc2ncc(C#N)cc2F)ncc1C(=O)NC[C@@H](F)C(C)(C)O` [Example 139] stands 6 nM; under `CC(C)CCNc1cc(Nc2ncc(C#N)cc2Cl)ncc1C(=O)NC[C@@H](F)C(C)(C)O` [Example 140], 7.3 nM; under `CC(C)CCNc1cc(Nc2ncc(C#N)cc2F)ncc1C(=O)NC[C@@H](F)C(C)(C)O` [Example 141], 9.9 nM.
